Assay results from patent publication US5391800A, “Method for inhibition of cell motility by sphingosine-1-phosphate, its derivatives and mimetics and method of synthesizing sphingosine-1-phosphate and its derivatives” (The Biomembrane Institute, priority 1993, dated 1995).
“Also recorded” adds a separate entry of the source.

How the values were obtained:
[1] = system: B16/F1 melanoma cells; assay: Growth of B16/F1 melanoma cells (cell count after 48 hr); format: cell-based, mouse; conditions: for Growth-inhibitory effect / activity at 10 µM: 10 μM; for Growth-inhibitory effect: B16/F1 cells
Method: *Mean ± S.E. (n = 3). For controls (defined as 100%), cell number was
10^5 cells were seeded and
cultured on a 35 mm plastic dish in Dulbecco's modified Eagle's medium
containing 2% fetal bovine serum in the presence or absence of SPN
derivatives. 48 hr later, cells were counted.

[2] = system: B16/F1 melanoma cells; assay: Chemotactic motility of B16/F1 cells through MATRI-GEL-coated transwell filter; format: cell-based, mouse; conditions: for % motility: percent relative to control, n = 3 or 4, concentration not given
Method: (§1) The assays for determining chemotactic cell motility and chemoinvasion can be performed using transwell plates with a polycarbonate membrane filter (pore size 8 μm) (Costar Scientific, Cambridge, Mass.). Aliguots, e.g., 50 μl, of an aqueous solution of MATRI-GEL (Collaborative Research, Bedford, Mass.) containing SPN-1-P or other inhibitor (e.g., 20 μg/ml for chemotactic motility assay or 200 μg/ml for chemoinvasion assay), is added to each well and dried overnight. The filter is then fitted onto the lower chamber plate. The lower chamber can contain conditioned medium (CM) (i.e., medium used for splenic stromal cell culture, and containing motility factor secreted by these cells), e.g., 0.6 ml, with or without SPN-1-P or other inhibitor. To the upper chamber is added, e.g., about 100 μl, of cell suspension (5×10^4 cells/ml for invasion assay, 5×10^5 cells/ml for motility assay), which is then incubated in 5% CO2 at 37° C. for 70-72 hours (invasion assay) or 20 hours (motility assay). After incubation, cells remaining in the upper chamber are wiped off with a cotton swab, and cells which had migrated to the lower chamber side of the filter are fixed in methanol for 30 seconds and stained with 0.05% toluidine blue. The filter is removed, the stain is solubilized in 10% acetic acid (e.g., 0.1 ml for invasion assay, 0.5 ml for motility assay), and color intensity (optical density) is quantitated by ELISA reading at 630 nm. Using SPN-1-P, a linear relationship was observed between cell number and toluidine blue optical density (FIG. 7).
(§2) Assays were performed using transwell plates with polycarbonate membrane filters (pore size 8 μm) (Costar Scientific, Cambridge, Mass.). 50 μl aliguots of an aqueous solution of MATRI-GEL (Collaborative Research, Bedford, Mass.) containing 20 μg/ml (for chemotactic motility assay) or 200 μg/ml (for chemoinvasion assay) were added to each well and dried overnight. The filter was fitted onto the lower chamber plate. The lower chamber contained 0.6 ml conditioned medium (CM) (i.e., medium used for splenic stromal cell culture, and containing motility factor secreted by these cells) with or without the suspected inhibitor. To the upper chamber was added 100 μl of cell suspension (5×10^4 cells/ml for invasion assay, 5×10^5 cells/ml for motility assay), which was then incubated in 5% CO2 at 37° C. for 70-72 hours (invasion assay) or 20 hours (motility assay). After incubation, cells remaining in the upper chamber were wiped off with a cotton swab, and cells which had migrated to the lower chamber side of the filter were fixed in methanol for 30 seconds and stained with 0.05% toluidine blue. The filter was removed, the stain was solubilized in 10% acetic acid (0.1 ml for invasion assay, 0.5 ml for motility assay), and color intensity (optical density) was quantitated by ELISA reading at 630 nm. A linear relationship was observed between cell number and toluidine blue optical density (FIG. 7.).
In experiments with different quantities of MATRI-GEL, cell migration through transwell filter was maximal with 1 μg/well was applied, and when CM was used (FIG. 8). Therefore, chemotactic cell motility, as affected by various SPN derivatives, was assayed under these conditions.
*Mean ± S.E. of percent relative to control (n = 4). Actual O.D. value
and 0.147 (HT1080). 6 × 10^4 cells were placed on a transwell
filter coated with 1.0 μg MATRIGEL in the upper chamber, and cultured
for 18 hours in the presence of CM and SPN1-P in the lower chamber.

[3] = system: B16/F1 melanoma cells; assay: Chemoinvasion of B16/F1 cells through thick MATRI-GEL layer on transwell filter; format: cell-based, mouse; conditions: for Effect on invasion compared with SPN-1-P: FIG. 10; for % invasion: percent relative to control, mean ± S.E., n = 3 or 4, concentration not given, 4200 min
Method: as §1, §2
Chemoinvasion was measured by the ability of tumor cells in CM (as described above) to migrate through a thick layer of MATRI-GEL during a prolonged incubation period (70 hours). This property is distinct from chemotactic cell motility, which involves a much shorter incubation period (20 hours) and a thin layer of MATRI-GEL. For the chemoinvasion assay, 10 μg of MATRI-GEL was applied to a polycarbonate transwell filter and migration was observed following 70 hours incubation (based on results shown in FIG. 8).

[4] = system: human neutrophils; assay: Phagokinetic activity of human neutrophils on gold sol-coated plates; format: cell-based; conditions: for Cleared area: 2 hours, mean ± S.D., control 6.3 ± 2.3; for Reduction in phagokinetic activity of human neutrophils: Table VII, in words
Method: Phagokinetic activity is measured by the ability of cells to ingest foreign particles while moving. Cell motility can be estimated as the area of a phagokinetic track on gold sol particle-coated plates as previously described {Albrecht-Buehler, Cell, 11:395 (1977)}. A uniform coating of gold particles is prepared on glass coverslips precoated with bovine serum albumin, and coverslips are rinsed repeatedly to remove non-adhering or loosely-adhering gold particles. Freshly-prepared neutrophils or tumor cells detached from culture are placed in a Petri dish containing the gold sol-coated plate, and incubated for about 2 hours (for human neutrophils) or about 18 hours (for tumor cells). The coverslips are fixed for 1 hour in a 4% formaldehyde solution in phosphate-buffered saline (PBS) and mounted on microscope slides. The phagokinetic tracks are observed on a television connected to a light microscope (Nikon, Tokyo, Japan). Tracks on the television are transferred to translucent sheets, which are then photocopied. Phagokinetic activity is quantitated by cutting and weighing the swept area in the copy.
Cell motility was estimated as the area of phagokinetic track on gold sol particle-coated plates as previously described {Albrecht-Buehler, Cell, 11:395 (1977)}. A uniform coating of gold particles was prepared on glass coverslips precoated with bovine serum albumin, and the coverslips were rinsed repeatedly to remove non-adhering or loosely-adhering gold particles. Freshly-prepared neutrophils or tumor cells detached from culture were placed in a Petri dish containing the gold sol-coated plate, and incubated for 2 hours (for human neutrophils) or 18 hours (for tumor cells). The coverslips were fixed for 1 hour in 4% formaldehyde solution in phosphate-buffered saline (PBS) and mounted on microscope slides. The phagokinetic tracks were observed on a television connected to a light microscope (Nikon, Tokyo, Japan). Tracks on the television were transferred to translucent sheets, which were then photocopied. Phagokinetic activity was quantitated by cutting and weighing the swept area in the copy.
**mean ± S.D. Freshlyprepared neutrophils (1 × 10^4
cell/plate) were seeded on a coverslip precoated with gold sol particles
in the presence or absence of test compound. 2 hours later, incubation wa
terminated by adding 200 μl of 10% formaldehyde and the cleared area
was estimated as described in the text.

[5] = Mus musculus, B16-F1, 48 hr, control = 100%, mean ± S.E., n = 3
[6] = comparison with other sphingolipids

In the case of CCCCCCCCCCCCC/C=C/[C@@H](O)[C@@H](N)COP(=O)(O)O [SPN-1-P, sphingosine-1-phosphate], the “Growth-inhibitory effect” value [1] is reported as “no growth-inhibitory effect”, the activity at 0.01 µM ([1]; Mus musculus, B16-F1, 0.01 μM, 48 hr, control = 100%, mean ± S.E., n = 3) is reported as 103 ± 10% and the activity at 0.1 µM ([1]; Mus musculus, B16-F1, 0.1 μM, 48 hr, control = 100%, mean ± S.E., n = 3) is reported as 97 ± 5%. The activity at 1 µM [1, 5] was 105 ± 10%, the activity at 5 µM [1, 5] was 96 ± 2% and the activity at 10 µM [1, 5] was 87 ± 10%. For the same compound, the “Inhibition of B16/F1 motility, comparison” value ([2]; FIG. 9, 20 hour) was “inhibited most strongly; also recorded: same dose-dependent inhibitory effect on cell motility”, the inhibition at 0.1 µM ([2]; Mus musculus, B16-F1, 10^-7 M, 20 hour, CM, lower chamber, read-out: Motility blocked) was 100% and the inhibition at 0.01 µM ([2]; Mus musculus, B16-F1, 10^-8 M, 20 hour, CM, lower chamber, read-out: Motility blocked) was 90%. It also gave an activity at 0.001 µM ([2]; Mus musculus, B16-F1, F1, 0.001 μM, 18 hours, relative to control, mean ± S.E., n = 4) of 82 ± 44%, an activity at 0.01 µM ([2]; Mus musculus, B16-F1, F1, 0.01 μM, 18 hours, relative to control, mean ± S.E., n = 4) of 12 ± 7% and an activity at 0.1 µM ([2]; Mus musculus, B16-F1, F1, 0.1 μM, 18 hours, relative to control, mean ± S.E., n = 4) of 6 ± 2%. For the same compound, the activity at 1 µM ([2]; Mus musculus, B16-F1, F1, 1.0 μM, 18 hours, relative to control, mean ± S.E., n = 4) was 8 ± 2%, the “Susceptibility of B16/F1 cells (chemotactic motility)” value ([2]; Table V, in words) was “high” and the “Inhibition of cell motility compared with other sphingolipids” value [2, 6] was “much stronger than that for SPN, N,N-dimethylsphingosine (DMS), or N,N,N-trimethylsphingosine (TMS); also recorded: unexpectedly superior inhibition”. The “% motility” value ([2]; mean ± S.E.) was 5 ± 1%, the “Inhibition of invasion” value ([3]; 10^-8 or 10^-7 M, 70 hours) was “strongly inhibited” and the “Inhibition of chemoinvasion compared with other sphingolipids” value [3, 6] was “unexpectedly superior inhibition”. The Cleared area ([4]; 0.45 μM) was 5.5 ± 2.7 × 10^3 μm^2, the Cleared area ([4]; 1.0 μM) was 5.4 ± 2.4 × 10^3 μm^2 and the Cleared area ([4]; 4.5 μM) was 3.5 ± 1.4 × 10^3 μm^2. For the same compound, the “Reduction in phagokinetic activity of human neutrophils” value [4] was “most striking”.

In the case of CCCCCCCCCCCCC/C=C/[C@@H](O)[C@@H](N)CO [SPN, sphingosine], the “Growth-inhibitory effect” value [1] is reported as “moderate growth-inhibitory effect”, the activity at 1 µM [1, 5] is reported as 101 ± 1% and the activity at 5 µM [1, 5] is reported as 87 ± 10%. The activity at 10 µM [1, 5] was 78 ± 4%, the inhibition at 10 µM ([2]; Mus musculus, B16-F1, 20 h, read-out: Motility blocked) was 100% and the “Effect on invasion compared with SPN-1-P” value ([3]; 70 hours) was “weaker effect”. The “% invasion” value [3] was 16 ± 7% and the Cleared area ([4]; 0.45 μM) was 5.2 ± 2.0 × 10^3 μm^2.

In the case of CCCCCCCCCCCCC/C=C/[C@@H](O)[C@H](CO)[N+](C)(C)C [TMS, N,N,N-trimethylsphingosine], the “Growth-inhibitory effect” value [1] is reported as “strong”, the activity at 1 µM [1, 5] is reported as 88 ± 7% and the activity at 5 µM [1, 5] is reported as 77 ± 8%. For the same compound, the activity at 10 µM [1, 5] was 11 ± 1%, the “Inhibition of motility” value ([2]; 10^-5 M, 20 hour) was “only weak inhibition of motility” and the “% motility” value ([2]; mean ± S.E.) was 100 ± 19%. For the same compound, the “Effect on invasion compared with SPN-1-P” value ([3]; 70 hours) was “weaker effect”, the “% invasion” value [3] was 75 ± 8% and the Cleared area ([4]; 0.45 μM) was 5.4 ± 2.7 × 10^3 μm^2. For the same compound, the Cleared area ([4]; 1.0 μM) was 3.6 ± 1.5 × 10^3 μm^2 and the “Reduction in phagokinetic activity of human neutrophils” value [4] was “most striking”.
